Source: US20210113586A1, “NEW USE AND METHODS OF MODULATING IMMUNE RESPONSES” (DIAMYD MEDICAL AB, priority 2018, published 2021)

Legend:
[1] = system: PBMCs from T1D individuals; test: Proliferation of anti-CD3 stimulated PBMCs from T1D donors; format: cell-based, human; details: Example 1, FIG. 1D; PBMCs from all 13 T1D donors; 100 nM GABA
Description: (§1) Peripheral Blood Mononuclear cells (PBMCs) are isolated from blood from donors diagnosed with Type-1 diabetes and healthy controls. Alternatively, CD4-positive cells (T-cells) are further isolated from PBMCs by e.g. MACS beads, FACS or similar technology. […] A reasonable replication, such as 3 cultures of each condition, is performed. A normalized proliferation value for each culture is then calculated by a standard proliferation measurement method, such as by CFSE staining or radioactive thymidine incorporation (requiring additional factors be added during culture) or by staining for proliferation markers.
(§2) In the FIG. 1, the proliferation of cells retrieved from 13 T1D subjects and 15 healthy controls were inspected. […] A normalized proliferation index was calculated for each culture.
The proliferation of freshly isolated human PBMCs or CD4^+ T cells was evaluated with MTT (3-(4,5-Dimethylthiazol-2-yl)-2,5-Diphenyltetrazolium Bromide) assay (Ring et al., 2012). Cells were suspended in complete medium (RPMI 1640 supplemented with 2 mM glutamine, 25 mM HEPES, 10% heat inactivated fetal bovine serum, 100 U/ml penicillin, 10 mg/ml streptomycin, 5 mM R-mercaptoethanol) in a concentration 1 million cells per milliliter. The assay was performed in 96-well plates in duplicates or triplicates, where each well was pre-coated with 3 μg/ml anti-CD3 antibody for 3-5 h at 37° C. Each well was loaded with 100,000 cells. Drugs were added to the wells at the relevant concentrations. The plate was incubated for 68 h at 37° C. (95% O2, 5% CO2) and then, a media-soluble tetrazolium dye MTT was added to a final concentration of 1 mM after which the plate was incubated for additional 4 h. The plate was then centrifuged at 2,000 RPM for 10 min to pellet the insoluble purple formazan crystals. The supernatant culture media was collected, stored at −80° C. and used for analysis of cytokines using the multiplex proximity extension assay (PEA). The formazan crystal pellet was dissolved in DMSO and the plate was read within 10 min using a Multiskan MS plate reader (Labsystems) at 550 nm. […]

responder CD4+ T cells = test: Proliferation of anti-CD3 stimulated GABA responder CD4+ T cells from ND individuals; format: cell-based, human; details: Example 1, FIG. 1B; CD4-positive cells from 10 healthy donors; 100 nM GABA
Description: as §1, §2
(§3) The proliferation of freshly isolated human PBMCs or CD4^+ T cells was evaluated with MTT (3-(4,5-Dimethylthiazol-2-yl)-2,5-Diphenyltetrazolium Bromide) assay (Ring et al., 2012). Cells were suspended in complete medium (RPMI 1640 supplemented with 2 mM glutamine, 25 mM HEPES, 10% heat inactivated fetal bovine serum, 100 U/ml penicillin, 10 mg/ml streptomycin, 5 mM R-mercaptoethanol) in a concentration 1 million cells per milliliter. The assay was performed in 96-well plates in duplicates or triplicates, where each well was pre-coated with 3 μg/ml anti-CD3 antibody for 3-5 h at 37° C. Each well was loaded with 100,000 cells. Drugs were added to the wells at the relevant concentrations. The plate was incubated for 68 h at 37° C. (95% O2, 5% CO2) and then, a media-soluble tetrazolium dye MTT was added to a final concentration of 1 mM after which the plate was incubated for additional 4 h. The plate was then centrifuged at 2,000 RPM for 10 min to pellet the insoluble purple formazan crystals. The supernatant culture media was collected, stored at −80° C. and used for analysis of cytokines using the multiplex proximity extension assay (PEA). The formazan crystal pellet was dissolved in DMSO and the plate was read within 10 min using a Multiskan MS plate reader (Labsystems) at 550 nm. The optical density value was used as the proliferation index value. Drugs were purchased from Sigma-Aldrich or Tocris (Bristol, UK).

[2] = system: non-responder CD4+ T cells; test: Proliferation of anti-CD3 stimulated GABA non-responder CD4+ T cells from ND individuals; format: cell-based, human
Description: as §1, §2
The proliferation of freshly isolated human PBMCs or CD4^+ T cells was evaluated with MTT (3-(4,5-Dimethylthiazol-2-yl)-2,5-Diphenyltetrazolium Bromide) assay (Ring et al., 2012). Cells were suspended in complete medium (RPMI 1640 supplemented with 2 mM glutamine, 25 mM HEPES, 10% heat inactivated fetal bovine serum, 100 U/ml penicillin, 10 mg/ml streptomycin, 5 mM R-mercaptoethanol) in a concentration 1 million cells per milliliter. […] The formazan crystal pellet was dissolved in DMSO and the plate was read within 10 min using a Multiskan MS plate reader (Labsystems) at 550 nm. […]

[3] = system: PBMCs from nondiabetic (ND) individuals; details: GABA 100 nM, normalized to control
Description: as §3
(§4) Plasma samples, and culture media samples that were collected from plate wells at the end of the proliferation assay, were analyzed by multiplex PEA with an Olink Inflammation […] panel, targeting 92 proteins related to inflammation (Olink Proteomics, Uppsala, Sweden) as previously described (Edvinsson et al., 2017, Assarsson et al., 2014, Larsson et al., 2015, Larssen et al., 2017). Briefly, 1 μl of sample (plasma samples or cell culture media samples) or negative control was mixed with 3 μl probe solution containing a set of 92 paires DNA-oligonucleotide-conjugated antibodies. Upon recognition of a target protein by a pair of probes, the DNA oligonucletodies on the antibodies are brought in proximity and hybridize to each other, followed by enzymatic DNA polymerization to form a new DNA molecule. The newly formed DNA molecule is then amplified and quantified using a microfluidic real-time qPCR, BioMark™ HD (Fluidigm, South San Francisco, Calif., USA). The generated quantification cycle (Cq) values are normalized against spiked-in controls to convert Cq values to Normalized Protein eXpression (NPX) value on log2 scale. NPX is an arbitrary unit, which is positively correlated to protein concentration. These NPX data were then converted to linear data, using the formula 2^NPX, prior to further statistical analysis. Limit of detection (LOD) for each protein was defined as three standard deviations above the background. Proteins with levels below LOD were excluded from further data analysis.

[4] = system: PBMCs from type 1 diabetic (T1D) patients; details: GABA 100 nM
Description: as §3, §4

[5] = T1D PBMCs, normalized to control

NCCCC(=O)O [GABA, gamma-aminobutyric acid]
proliferation in the presence of GABA [1]: proliferated less
proliferation in the presence of GABA (responder CD4+ T cells): did proliferate less
proliferation in the presence of GABA ([2]; Example 1, FIG. 1A, CD4-positive cells from 5 healthy donors, 100 nM GABA): did not proliferate less
decrease of proliferation by GABA ([2]; Example 2, non-responder T cell population): did not decrease
AXIN1 in culture medium, % Mean [3]: 82.3%
CCL4 in culture medium, % Mean [3]: 95.3%
CD244 in culture medium, % Mean [3]: 92.5%
CXCL9 in culture medium, % Mean [3]: 81.3%
IL-12B in culture medium, % Mean [3]: 84.8%
IL-18R1 in culture medium, % Mean [3]: 90.7%
LIF in culture medium, % Mean [3]: 88.5%
OPG in culture medium, % Mean [3]: 81.8%
OSM in culture medium, % Mean [3]: 88.1%
PD-L1 in culture medium, % Mean [3]: 87.8%
SIRT2 in culture medium, % Mean [3]: 81.6%
TNF in culture medium, % Mean [3]: 74.1%
TNFB in culture medium, % Mean [3]: 95.7%
TNFRSF9 in culture medium, % Mean [3]: 99.6%
TNFSF14 in culture medium, % Mean [3]: 89.2%
TWEAK in culture medium, % Mean [3]: 86.3%
4E-BP1 in culture medium, % Mean [4, 5]: 45.5%
ADA in culture medium, % Mean [4, 5]: 53.4%
AXIN1 in culture medium, % Mean [4, 5]: 62.8%
CASP-8 in culture medium, % Mean [4, 5]: 60.9%
CCL4 in culture medium, % Mean [4, 5]: 85.1%
CCL19 in culture medium, % Mean [4, 5]: 43.8%
CCL20 in culture medium, % Mean [4, 5]: 31.5%
CD244 in culture medium, % Mean [4, 5]: 76.3%
CSF-1 in culture medium, % Mean [4, 5]: 70.5%
CXCL1 in culture medium, % Mean [4, 5]: 52.6%
CXCL5 in culture medium, % Mean [4, 5]: 68.1%
CXCL6 in culture medium, % Mean [4, 5]: 54.0%
CXCL9 in culture medium, % Mean [4, 5]: 45.5%
CXCL10 in culture medium, % Mean [4, 5]: 42.5%
CXCL11 in culture medium, % Mean [4, 5]: 61.4%
EN-RAGE in culture medium, % Mean [4, 5]: 71.1%
Flt3L in culture medium, % Mean [4, 5]: 62.9%
IL-1 alpha in culture medium, % Mean [4, 5]: 43.5%
IL-2RB in culture medium, % Mean [4, 5]: 73.0%
IL-4 in culture medium, % Mean [4, 5]: 117.0%
IL-5 in culture medium, % Mean [4, 5]: 85.3%
IL-6 in culture medium, % Mean [4, 5]: 49.4%
IL-10 in culture medium, % Mean [4, 5]: 61.4%
IL-12B in culture medium, % Mean [4, 5]: 53.3%
IL-13 in culture medium, % Mean [4, 5]: 53.0%
IL-17A in culture medium, % Mean [4, 5]: 58.9%
IL-18R1 in culture medium, % Mean [4, 5]: 63.3%
IL-24 in culture medium, % Mean [4, 5]: 86.9%
LAP TGF-beta-1 in culture medium, % Mean [4, 5]: 67.6%
LIF in culture medium, % Mean [4, 5]: 70.0%
MCP-1 in culture medium, % Mean [4, 5]: 53.0%
MCP-2 in culture medium, % Mean [4, 5]: 35.4%
MCP-3 in culture medium, % Mean [4, 5]: 44.6%
MIP-1 alpha in culture medium, % Mean [4, 5]: 106.2%
MMP-1 in culture medium, % Mean [4, 5]: 78.4%
MMP-10 in culture medium, % Mean [4, 5]: 61.3%
OPG in culture medium, % Mean [4, 5]: 45.1%
OSM in culture medium, % Mean [4, 5]: 69.8%
PD-L1 in culture medium, % Mean [4, 5]: 57.0%
SIRT2 in culture medium, % Mean [4, 5]: 53.5%
STAMP8 in culture medium, % Mean [4, 5]: 53.9%
TGFA in culture medium, % Mean [4, 5]: 61.1%
TNF in culture medium, % Mean [4, 5]: 47.4%
TNFRSF9 in culture medium, % Mean [4, 5]: 71.1%
TNFSF14 in culture medium, % Mean [4, 5]: 69.9%
TRAIL in culture medium, % Mean [4, 5]: 67.0%
TWEAK in culture medium, % Mean [4, 5]: 55.7%
VEGF-A in culture medium, % Mean [4, 5]: 82.1%
μPA in culture medium, % Mean [4, 5]: 86.3%
number of cytokines whose release was increased ([4]; n=13, FIG. 4c): two
